What was measured:
[1] = species on record: Canis familiaris; assay: Inotropic selectivity was assessed by normalizing changes in heart rate to the 100% levels in mongrel dogs; assay type: functional, Canis lupus familiaris
[2] = species on record: Canis familiaris; assay: Inotropic selectivity was assessed by normalizing changes in heart rate to the 50% levels in mongrel dogs; assay type: functional, Canis lupus familiaris
[3] = species on record: Canis familiaris; assay: Cardioselectivity was estimated by normalizing changes in diastolic blood pressure to the 50% levels of contractile force in mongrel dogs; assay type: functional, Canis lupus familiaris, Artery
[4] = tested on: Canis familiaris; assay: In vivo dose causing a 100% increase in right ventricular contractile force in mongrel dogs; assay type: functional, Canis lupus familiaris, Heart right ventricle
[5] = tested on: Canis familiaris; assay: In vivo dose causing a 50% increase in right ventricular contractile force in mongrel dogs; assay type: functional, Canis lupus familiaris, Heart right ventricle
[6] = species on record: Canis familiaris; assay: Cardioselectivity was estimated by normalizing changes in diastolic blood pressure to the 100% levels of contractile force in mongrel dogs; assay type: functional, Canis lupus familiaris, Artery

Structure (SMILES): CC(Cc1ccc(O)c(O)c1)NC1CCc2cc(O)c(O)cc2C1 (centres undefined)
- Delta HR [1]: 4 beats min-1
- Delta HR [2]: -5 beats min-1
- Delta blood pressure [3]: -39 mmHg
- Inotropic potency [4]: 27 nM/kg
- Inotropic potency [5]: 11.4 nM/kg
- Delta blood pressure [6]: -30 mmHg

Structure (SMILES): CC(Cc1ccc(O)c(O)c1)NC1CCc2cc(O)ccc2C1 (centres undefined)
- Delta HR [1]: 49 beats min-1
- Delta HR [2]: 30 beats min-1
- Delta blood pressure [3]: -46 mmHg
- Inotropic potency [4]: 85 nM/kg
- Inotropic potency [5]: 25 nM/kg
- Delta blood pressure [6]: -66 mmHg

Structure (SMILES): Oc1cc2c(cc1O)CC(NC1CCc3c(ccc(O)c3O)C1)CC2 (centres undefined)
- Delta HR [1]: 31 beats min-1
- Delta HR [2]: 24 beats min-1
- Delta blood pressure [3]: -61 mmHg
- Inotropic potency [4]: 590 nM/kg
- Inotropic potency [5]: 210 nM/kg
- Delta blood pressure [6]: -55 mmHg

Structure (SMILES): CC(Cc1ccc(O)cc1)NC1CCc2cc(O)c(O)cc2C1 (centres undefined)
- Delta HR [2]: 23 beats min-1
- Delta blood pressure [3]: -25 mmHg
- Inotropic potency [5]: 680 nM/kg

Structure (SMILES): CC(Cc1ccc(O)c(O)c1)NCCc1ccc(O)c(O)c1 (centres undefined)
- Delta HR [1]: 39 beats min-1
- Delta HR [2]: 26 beats min-1
- Delta blood pressure [3]: -19 mmHg
- Inotropic potency [4]: 13 nM/kg
- Inotropic potency [5]: 4 nM/kg
- Delta blood pressure [6]: -34 mmHg

Structure (SMILES): COc1ccc(CC(C)NCCc2ccc(O)c(O)c2)cc1OC (centres undefined)
- Delta HR [1]: 17 beats min-1
- Delta HR [2]: 10 beats min-1
- Delta blood pressure [3]: -24 mmHg
- Inotropic potency [4]: 1100 nM/kg
- Inotropic potency [5]: 490 nM/kg
- Delta blood pressure [6]: -31 mmHg

Structure (SMILES): Oc1cc2c(cc1O)CC(NC1CCc3cc(O)c(O)cc3C1)CC2 (centres undefined)
- Delta HR [1]: 62 beats min-1
- Delta HR [2]: 31 beats min-1
- Delta blood pressure [3]: -78 mmHg
- Inotropic potency [4]: 2650 nM/kg
- Inotropic potency [5]: 961 nM/kg
- Delta blood pressure [6]: 84 mmHg
